Laboratory results from patent US20080255162A1, “Pyrrolyl Substituted Pyrido[2,3-D]Pyrimidin-7-Ones and Derivatives Thereof as Therapeutic Agents” (WARNER-LAMBERT COMPANY LLC, priority 2004, published 2008).

Target: T1, PI3Kγ (purified recombinant p101/p110γ protein) (Homo sapiens, UniProt P48736)
T1 construct: HA; made in house; host or cells: Spodoptera frugiperda Sf9 cells (baculovirus co-infection)
Experiment: PI3Kγ In Vitro Kinase Assay
Type: biochemical
Conditions: final ATP 20 μM, 25 μM PIP2, G protein β1/γ2 subunits, 20 minutes at room temperature
Procedure: Spodtera frugiperda cells, grown in ESF921 media, were co-infected with baculovirus expressing a glu-tagged p101 and baculovirus expressing an HA-tagged p110γ, at a 3:1 ratio of p101 baculovirus to p110γ baculovirus. Sf9 cells were grown to 1×10^7 total cells/mL in 10 L bioreactors and harvested 48-72 hours post infection. Samples of infected cells were then tested for expression of p101/p110γ PI3 kinase by immunoprecipitation and Western Blot analysis methods (see below).
To purify PI3Kγ, 4 volumes of room temperature hypotonic lysis buffer (1 mM MgCl2, 1 mM DTT, 5 mM EGTA, 1 mM Pefabloc, 0.5 μM aprotinin, 5 μM leupeptin, 2 μM pepstatin, 5 μM E64, pH 8) per gram of cell paste, was poured onto frozen cell pellets with stirring, then lysed in a nitrogen “bomb” at 400 psi (599HC T316, Parr Instrument Co, Moline, Ill.). NaCl was added to 150 mM, and sodium cholate was added to 1% and mixed for another 45 minutes. The lysates were clarified by centrifugation for 25 minutes at 14,000 rpm. The lysates were then loaded over anti-glu-linked Protein-G Sepaharose beads (Covance Research Products, Richmond, Calif.) using 20 mL resin/50 g cell paste. The column was washed with 15 volumes of wash buffer (1 mM DTT, 0.2 mM EGTA, 1 mM Pefabloc, 0.5 μM aprotinin, 5 μM leupeptin, 2 μM pepstatin, 5 μM E64, 150 mM NaCl, 1% sodium cholate, pH 8). PI3Kγ was eluted with 6 column volumes of wash buffer that contain 100 μg/mL of a peptide that competes for binding of the glu tag. The column fractions with the eluted protein (determined by taking OD280 readings) were collected and dialyzed in 0.2 mM EGTA, 1 mM DTT, 1 mM Pefabloc, 5 μM leupeptin, 0.5% sodium cholate, 150 mM NaCl, and 50% glycerol, pH 8. The fractions were stored at −80° C. until further use.
Spodtera frugiperda cells were coinfected with baculovirus expressing a glu-tagged G protein β1 and baculovirus expressing a G protein β2, at a 1:1 ratio of glu-tagged G protein β1 baculovirus to G protein β2 baculovirus. Sf9 cells are grown in 10 L bioreactors and harvested 48-72 hours post infection. Samples of infected cells were tested for G protein β1/β2 expression by Western Blot analysis, as described below. Cell lysates were homogenized and loaded onto a column of glu-tagged beads as in Biological Example 1 and competed off the column with a glu peptide and processed as described in Biological Example 1.
The inhibitory properties of the compounds in Table 1 were assayed in an in vitro PI3K assay. In a 96-well polypropylene plate, each well was spotted with 2 μL of 50 times the desired final concentration of compound in DMSO. Purified recombinant p101/p110γ protein (0.03 μg; ˜2.7 nM) and G protein β1/γ2 subunits (0.09 μg; ˜57.7 nM) for each reaction was combined in the assay buffer (30 mM HEPES, 100 mM NaCl, 1 mM EGTA, and 1 mM DTT). ATP and [γ-^32P-ATP] (0.09 μCi) were added to this mixture so that the final ATP concentration in the reaction was 20 μM. Lipid micelles were formed by sonicating phosphatidylinositol-4,5-diphosphate (PIP2), phosphatidylethanolamine (PE), and Na-cholate in the assay buffer for 10 minutes, adding MgCl2 and incubating on ice for 20 minutes, for final concentrations of 25 μM PIP2, 300 μM PE, 0.02% Na-cholate, and 10 mM MgCl2 in the reaction. The reactions were started by adding equal volumes lipid and enzyme mixture in a total volume of 50 μL, allowed to run for 20 minutes at room temperature, and stopped with 100 μL 75 mM H3PO4. The lipid product was transferred to a glass fiber filter plate and washed with 75 mM H3PO4 several times. The presence of radioactive lipid product (PIP3) was measured by adding Wallac Optiphase mix to each well and counting in a Wallac 1450 Trilux plate reader (PerkinElmer Life Sciences Inc., Boston, Mass. 02118). The IC50 for each compound tested is reported in μM in the Table 2: […]

T1 sequence (P48736 whole entry, species assumed): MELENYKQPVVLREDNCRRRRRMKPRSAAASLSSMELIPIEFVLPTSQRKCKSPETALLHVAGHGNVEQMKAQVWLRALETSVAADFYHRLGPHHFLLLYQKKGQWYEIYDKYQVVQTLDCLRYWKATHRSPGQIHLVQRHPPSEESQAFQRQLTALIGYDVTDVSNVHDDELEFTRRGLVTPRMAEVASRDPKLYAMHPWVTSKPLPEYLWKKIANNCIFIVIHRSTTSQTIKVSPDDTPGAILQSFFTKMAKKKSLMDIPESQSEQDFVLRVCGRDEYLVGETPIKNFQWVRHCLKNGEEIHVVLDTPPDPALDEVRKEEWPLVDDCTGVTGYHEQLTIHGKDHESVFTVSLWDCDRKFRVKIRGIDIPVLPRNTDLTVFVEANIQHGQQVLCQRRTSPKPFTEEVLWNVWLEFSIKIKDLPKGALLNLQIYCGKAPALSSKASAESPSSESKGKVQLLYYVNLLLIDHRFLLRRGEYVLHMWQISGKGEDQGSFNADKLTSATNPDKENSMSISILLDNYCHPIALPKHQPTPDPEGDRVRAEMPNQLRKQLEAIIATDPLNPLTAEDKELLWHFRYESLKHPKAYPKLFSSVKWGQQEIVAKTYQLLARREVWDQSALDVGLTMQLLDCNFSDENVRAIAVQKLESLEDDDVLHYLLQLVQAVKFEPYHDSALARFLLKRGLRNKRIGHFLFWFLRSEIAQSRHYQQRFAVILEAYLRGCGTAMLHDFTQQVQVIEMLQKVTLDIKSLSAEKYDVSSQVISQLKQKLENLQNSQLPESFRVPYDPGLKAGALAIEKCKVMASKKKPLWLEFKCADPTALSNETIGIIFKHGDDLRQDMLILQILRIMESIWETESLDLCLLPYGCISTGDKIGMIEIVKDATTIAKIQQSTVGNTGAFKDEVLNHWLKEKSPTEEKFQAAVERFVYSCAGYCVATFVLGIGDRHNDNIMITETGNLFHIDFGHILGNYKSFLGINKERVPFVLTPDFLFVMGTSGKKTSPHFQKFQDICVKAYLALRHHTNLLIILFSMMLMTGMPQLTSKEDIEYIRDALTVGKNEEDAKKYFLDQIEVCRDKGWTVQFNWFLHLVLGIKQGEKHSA
T1 sequence (Q8WYR1 whole entry partner, species assumed): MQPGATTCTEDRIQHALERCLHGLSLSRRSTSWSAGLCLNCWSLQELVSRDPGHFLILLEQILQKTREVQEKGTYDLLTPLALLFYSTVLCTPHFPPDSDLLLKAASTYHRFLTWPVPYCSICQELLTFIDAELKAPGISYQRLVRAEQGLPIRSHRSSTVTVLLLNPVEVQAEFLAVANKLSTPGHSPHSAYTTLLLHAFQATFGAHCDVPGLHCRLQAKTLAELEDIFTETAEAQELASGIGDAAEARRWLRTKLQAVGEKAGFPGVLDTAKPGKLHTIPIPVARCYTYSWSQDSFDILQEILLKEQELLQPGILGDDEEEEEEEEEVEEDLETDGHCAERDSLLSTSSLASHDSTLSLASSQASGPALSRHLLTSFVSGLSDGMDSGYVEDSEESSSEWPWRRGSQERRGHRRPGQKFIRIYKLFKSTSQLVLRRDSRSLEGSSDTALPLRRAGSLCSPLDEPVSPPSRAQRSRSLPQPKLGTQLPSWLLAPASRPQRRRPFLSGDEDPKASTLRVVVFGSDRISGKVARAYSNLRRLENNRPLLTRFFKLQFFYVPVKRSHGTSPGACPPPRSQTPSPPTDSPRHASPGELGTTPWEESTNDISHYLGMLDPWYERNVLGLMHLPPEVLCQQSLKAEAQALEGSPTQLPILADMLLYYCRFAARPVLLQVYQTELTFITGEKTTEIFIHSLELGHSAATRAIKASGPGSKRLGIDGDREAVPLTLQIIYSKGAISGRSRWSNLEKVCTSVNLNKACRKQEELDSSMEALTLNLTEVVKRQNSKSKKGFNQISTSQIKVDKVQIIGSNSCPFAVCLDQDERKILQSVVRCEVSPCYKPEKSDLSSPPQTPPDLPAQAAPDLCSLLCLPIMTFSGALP

IC50	Structure (SMILES)
25 nM	COC(=O)c1cc(Nc2nc(C)c3ccc(=O)n(C4CCCCCC4)c3n2)cn1C [Example 1, 4-(8-Cycloheptyl-4-methyl-7-oxo-7,8-dihydro-pyrido[2,3-d]pyrimidin-2-ylamino)-1-methyl-1H-pyrrole-2-carboxylic acid methyl ester]
63 nM	CCOC(=O)c1cc(Nc2nc(C)c3ccc(=O)n(C)c3n2)cn1C(C)c1ccccc1 (centres unmarked) [Example 2, 4-(4,8-Dimethyl-7-oxo-7,8-dihydro-pyrido[2,3-d]pyrimidin-2-ylamino)-1-(1-phenyl-ethyl)-1H-pyrrole-2-carboxylic acid ethyl ester]
18 nM	COC(=O)c1cc(Nc2nc(C)c3ccc(=O)n(C4CC4)c3n2)cn1C [Example 3, 4-(8-Cyclopropyl-4-methyl-7-oxo-7,8-dihydro-pyrido[2,3-d]pyrimidin-2-ylamino)-1-methyl-1H-pyrrole-2-carboxylic acid methyl ester]
13 nM	COC(=O)c1cc(Nc2nc(C)c3ccc(=O)n(C4CCC4)c3n2)cn1C [Example 4, 4-(8-Cyclobutyl-4-methyl-7-oxo-7,8-dihydro-pyrido[2,3-d]pyrimidin-2-ylamino)-1-methyl-1H-pyrrole-2-carboxylic acid methyl ester]
24 nM	COC(=O)c1cc(Nc2nc(C)c3ccc(=O)n(C4CCOCC4)c3n2)cn1C [Example 5, 1-Methyl-4-[4-methyl-7-oxo-8-(tetrahydro-pyran-4-yl)-7,8-dihydro-pyrido[2,3-d]pyrimidin-2-ylamino]-1H-pyrrole-2-carboxylic acid methyl ester]
4 nM	COC(=O)c1cc(Nc2nc(C)c3ccc(=O)n(C4CCCCC4)c3n2)cn1C [Example 6, 4-(8-Cyclohexyl-4-methyl-7-oxo-7,8-dihydro-pyrido[2,3-d]pyrimidin-2-ylamino)-1-methyl-1H-pyrrole-2-carboxylic acid methyl ester]
36 nM	CCOC(=O)c1cc(Nc2nc(C)c3ccc(=O)n(C4CCCCCC4)c3n2)cn1Cc1ccccc1 [Example 7, 1-Benzyl-4-(8-cycloheptyl-4-methyl-7-oxo-7,8-dihydro-pyrido[2,3-d]pyrimidin-2-ylamino)-1H-pyrrole-2-carboxylic acid ethyl ester]
12 nM	COC(=O)c1cc(Nc2nc(C)c3ccc(=O)n(CCC4CC4)c3n2)cn1C [Example 8, 4-[8-(2-Cyclopropyl-ethyl)-4-methyl-7-oxo-7,8-dihydro-pyrido[2,3-d]pyrimidin-2-ylamino]-1-methyl-1H-pyrrole-2-carboxylic acid methyl ester]
12 nM	COC(=O)c1cc(Nc2nc(C)c3cc(F)c(=O)n(C4CCCC4)c3n2)cn1C [Example 9, 4-(8-Cyclopentyl-6-fluoro-4-methyl-7-oxo-7,8-dihydro-pyrido[2,3-d]pyrimidin-2-ylamino)-1-methyl-1H-pyrrole-2-carboxylic acid methyl ester]
8 nM	COC(=O)c1cc(Nc2nc(C)c3cc(F)c(=O)n(CC4CCOCC4)c3n2)cn1C [Example 10, 4-[6-Fluoro-4-methyl-7-oxo-8-(tetrahydro-pyran-4-ylmethyl)-7,8-dihydro-pyrido[2,3-d]pyrimidin-2-ylamino]-1-methyl-1H-pyrrole-2-carboxylic acid methyl ester]
5 nM	COC(=O)c1cc(Nc2nc(C)c3cc(F)c(=O)n(C4CCC(OC)CC4)c3n2)cn1C (centres unmarked) [Example 11, 4-[6-Fluoro-8-(4-methoxy-cyclohexyl)-4-methyl-7-oxo-7,8-dihydro-pyrido[2,3-d]pyrimidin-2-ylamino]-1-methyl-1H-pyrrole-2-carboxylic acid methyl ester]
4 nM	CCOC(=O)c1cc(Nc2nc(C)c3cc(F)c(=O)n(C4CCCC4)c3n2)cn1Cc1cccnc1 [Example 12, 4-(8-Cyclopentyl-6-fluoro-4-methyl-7-oxo-7,8-dihydro-pyrido[2,3-d]pyrimidin-2-ylamino)-1-pyridin-3-ylmethyl-1H-pyrrole-2-carboxylic acid ethyl ester]
160 nM	CCOC(=O)c1cc(Nc2nc(C)c3cc(F)c(=O)n(C4CCCC4)c3n2)cn1C(C)c1ccccc1 (centres unmarked) [Example 13, 4-(8-Cyclopentyl-6-fluoro-4-methyl-7-oxo-7,8-dihydro-pyrido[2,3-d]pyrimidin-2-ylamino)-1-(1-phenyl-ethyl)-1H-pyrrole-2-carboxylic acid ethyl ester]
1440 nM	CCc1nc(Nc2cc(C(=O)OC)n(C)c2)nc2c1ccc(=O)n2C1CCCCCC1 [Example 14, 4-(8-Cycloheptyl-4-ethyl-7-oxo-7,8-dihydro-pyrido[2,3-d]pyrimidin-2-ylamino)-1-methyl-1H-pyrrole-2-carboxylic acid methyl ester]
33 nM	Cc1nc(Nc2cc(C(=O)O)n(C)c2)nc2c1ccc(=O)n2C1CCCCCC1 [Example 15, 4-(8-Cycloheptyl-4-methyl-7-oxo-7,8-dihydro-pyrido[2,3-d]pyrimidin-2-ylamino)-1-methyl-1H-pyrrole-2-carboxylic acid]
148 nM	Cc1nc(Nc2cc(C(=O)O)n(C(C)c3ccccc3)c2)nc2c1ccc(=O)n2C (centres unmarked) [Example 16, 4-(4,8-Dimethyl-7-oxo-7,8-dihydro-pyrido[2,3-d]pyrimidin-2-ylamino)-1-(1-phenyl-ethyl)-1H-pyrrole-2-carboxylic acid]
185 nM	Cc1nc(Nc2cc(C(=O)O)n(C)c2)nc2c1ccc(=O)n2C1CC1 [Example 18, 4-(8-Cyclopropyl-4-methyl-7-oxo-7,8-dihydro-pyrido[2,3-d]pyrimidin-2-ylamino)-1-methyl-1H-pyrrole-2-carboxylic acid]
1600 nM	CCc1nc(Nc2cc(C(=O)O)n(C)c2)nc2c1ccc(=O)n2C1CCCCCC1 [Example 20, 4-(8-Cycloheptyl-4-ethyl-7-oxo-7,8-dihydro-pyrido[2,3-d]pyrimidin-2-ylamino)-1-methyl-1H-pyrrole-2-carboxylic acid]
55 nM	Cc1nc(Nc2cc(C(=O)O)n(C)c2)nc2c1ccc(=O)n2C1CCC1 [Example 21, 4-(8-Cyclobutyl-4-methyl-7-oxo-7,8-dihydro-pyrido[2,3-d]pyrimidin-2-ylamino)-1-methyl-1H-pyrrole-2-carboxylic acid]
35 nM	Cc1nc(Nc2cc(C(=O)O)n(C(C)C)c2)nc2c1ccc(=O)n2C1CCCCCC1 [Example 22, 4-(8-Cycloheptyl-4-methyl-7-oxo-7,8-dihydro-pyrido[2,3-d]pyrimidin-2-ylamino)-1-isopropyl-1H-pyrrole-2-carboxylic acid]
1080 nM	Cc1nc(Nc2ccn(CC(=O)O)c2)nc2c1ccc(=O)n2C1CCCCCC1 [Example 23, [3-(8-Cycloheptyl-4-methyl-7-oxo-7,8-dihydro-pyrido[2,3-d]pyrimidin-2-ylamino)-pyrrol-1-yl]-acetic acid]
40 nM	Cc1nc(Nc2cc(C(=O)O)n(C)c2)nc2c1cc(F)c(=O)n2C1CCOCC1 [Example 25, 4-[6-Fluoro-4-methyl-7-oxo-8-(tetrahydro-pyran-4-yl)-7,8-dihydro-pyrido[2,3-d]pyrimidin-2-ylamino]-1-methyl-1H-pyrrole-2-carboxylic acid]
25 nM	Cc1nc(Nc2cc(C(=O)O)n(C)c2)nc2c1cc(F)c(=O)n2CC1CCOCC1 [Example 26, 4-[6-Fluoro-4-methyl-7-oxo-8-(tetrahydro-pyran-4-ylmethyl)-7,8-dihydro-pyrido[2,3-d]pyrimidin-2-ylamino]-1-methyl-1H-pyrrole-2-carboxylic acid]
